The results in this text go back to US8110577B2, “Histone deacetylase inhibitors” (Queen Mary & Westfield College, priority 2006, dated 2012).

Read-outs that look alike come from different tables or passages of the source.

For test [1], the system named is acetylated histone H3 in MCF-7 cells. The experiment in a line: Histone H3 acetylation in MCF7 cells (protein blot). The class given is cell-based. The settings on record: for histone H3 acetylation with time: FIG. 5; for change in histone H3 acetylation: 2 hour exposure to increasing concentrations, FIG. 4. As for the experimental part:
The effect of the compounds on the acetylation of histone H3 was investigated in MCF-7 cells. Briefly cells were treated with a range of concentration of specific inhibitor or different exposure durations. Cells were then lysed and the proteins resolved by polyacrylamide electrophoresis prior to blotting onto a nitrocellulose membrane and staining with an antibody specific for the protein under study (acetylated histone H3) and a control protein (β-actin). As HDAC inhibitors reduce deacetylase activity, treatment of intact cells results in the accumulation of acetylated histones.

In test [2] the test system is MCF7 (breast cancer) tumours. The experiment in a line: MCF7 xenograft study in nude mice. The test is classed as in vivo. The note with it: 15 day treatment, FIG. 6. As for the experimental part:
Xenograft studies were carried out with MCF7 cells implanted under the skin on the flank of female nude mice (5-8 weeks of age). […] Animals also received a 2 mg oestrogen pellet as an implant on the day of tumour implantation. Tumour volumes were determined from measurements of 2 diameters carried out every other day out to day 15 of treatment.

For test [3], the target named is Partially purified HDAC enzyme (liver prep). The experiment in a line: HDAC activity assay (MAL deacetylation, HPLC) with partially purified liver HDAC. The test is classed as biochemical, rat. From the text: The activity of compounds as inhibitors of histone deacetylase was investigated using a modified procedure based on a rapid in vitro HDAC activity assay (HDAC mediated deacetylation of an Ω-acetylated lysine (MAL)) as described by Hoffman et al in Nucl. Acids. Res. 27 2057-2058 (1999).
The HDAC substrate N-(-4-methyl-7-coumarinyl)-N-α-(tert-butyloxy-carbonyl)-N-Ω abbreviated as MAL was synthesised as described (Hoffman et al 1999). HDAC inhibitors and substrate (MAL) were made up in Hepes buffer (50 mM, pH 7.4). Partially purified HDAC enzyme (liver prep, 100 μL), HDAC inhibitor or Hepes buffer (100 μl), substrate (MAL, 100 μL 5 μg/mL) and assay buffer (100 μL, tris-HCl (10 mM), NaCl (10 mM), MgCl2 (15 mM), EGTA (0.1 mM), 10% (v/v) glycerol, and mercaptoethanol (0.007%)) were incubated at 37° C. for 60 minutes. The reaction was terminated with 100 μl acetonitrile, and MAL and the deacetylated product (ML) were determined in the supernatant.
(§1) Chromatographic separation of MAL and ML was carried out using a 15 cm Apex ODS […] column with acetonitrile/distilled water (40:60), 2% trifluoracetic acid (TFA) v/v mobile phase at a flow rate of 1.2 ml/minute. MAL and ML were quantified by fluorescence detection at excitation/emission wavelengths of 330/395 nm.
(§2) The activity of each inhibitor was assessed at a minimum of 5 non-zero concentrations. MAL and ML peak heights were used to derive the percentage MAL in the mixture as the ration of MAL: MAL+ML.
HDAC inhibitory activity against cell-free HDACs isolated from rat liver was determined using the HPLC method.

Test [4] has as its system HDAC activity in intact CEM cells. The experiment in a line: Whole cell HDAC activity assay (MAL) in intact CEM cells. The class given is cell-based. The note with it: FIG. 2, read-out: HDAC inhibitory values in intact CEM cells. On the procedure:
Cells were then rapidly washed at 4° C., lysed by sonication, the reaction stopped with acetonitrile, and MAL and the deacetylated product determined in the supernatant by rapid HPLC.
as §1, §2

The subject of another test is CEM (leukaemic) cells. The experiment in a line: Cell viability / cytotoxic activity, ATP Vialite assay, CEM cells. The test is classed as cell-based. The settings on record: Homo sapiens, CCRF-CEM. On the procedure: (§3) EC50 values for percentage viability (3-day exposure) were determined using 2 different methods, trypan blue staining and an ATP assay. Trypan blue staining relies on the ability of healthy cells with intact membranes to exclude dyes. As cells start to undergo programmed cell death membrane integrity becomes compromised allowing dye entry. The % cells staining positive for trypan blue relative to the total cell number therefore reflects % cell viability (% viability). Non-viable cells also lose the ability to regenerate ATP. A specific ATP assay procedure using a 96-well plate-based approach (Vialite assay, Cambrex, UK) also measures cell viability, expressed relative to the ATP value in the control (untreated) cell population.
Effects against viable cell number have been determined using the ATP Vialite kit method (Cambrex, UK).

The test system of test [5] is HCT116 (colorectal cancer) cells. Description: Cell viability, 3-day exposure, HCT116 cells. The class given is cell-based. The settings on record: Homo sapiens, HCT-116, 72 h, 3 day incubation, FIG. 3. On the procedure: as §3
The subject of test [6] is MCF7 (breast cancer) cells. Description: Cell viability, 3-day exposure, MCF7 cells. The class given is cell-based. The note with it: Homo sapiens, 72 h, 3 day incubation, FIG. 3. As for the experimental part: as §3
Test [7] concerns panel of 8 lymphoma cell lines. The experiment in a line: Cell viability (ATP) in a panel of 8 lymphoma cell lines. The test is classed as cell-based. The settings on record: ATP endpoint assay, read-out: EC50 values (range over the panel). On the procedure: as §3
The test system of test [8] is Cell-free (CEM cells) HDAC. The experiment in a line: Cell-free (CEM cells) HDAC inhibitory activity, fluorescent commercial kit (Upstate Cell Signaling). The test is classed as biochemical. The text has this:
HDAC inhibitory activity has also been determined using a fluorescent commercial kit method (Upstate Cell Signaling).

Where [9] appears, read: cell-free HDACs isolated from rat liver, HPLC method, different liver preparation than Example 1, read-out: HDAC inhibitory IC50.

On to `O=C(CCCCCCC(=O)Nc1ccccc1)NO` [SAHA, suberoylanilide hydroxamic acid, reference compound], for which, in test [1] (3 μM SAHA, time periods up to 48 hours), the “histone H3 acetylation with time” value was “acetylation increased up to 6 hours, but had decreased to baseline levels by 24 hours”. For the same molecule, the “change in histone H3 acetylation” value in test [1] is on record as “relatively minor changes in acetylation state at concentrations <1.0 μM”. The “effect on tumour growth” value in [2] (daily IP 25 mg/kg in DMSO) is “not very different to treatment with the DMSO vehicle alone”.

Consider `Cc1nsc(C(CCCCCC(N)=S)C(=O)Nc2ccccc2)n1` (stereo not drawn) [67022,20, 2-(3-Methyl-[1,2,4]thiadiazol-5-yl)-7-thiocarbamoylheptanoic Acid Phenylamide], for which, in [3] (setting [9]), the IC50 came to 318000 nM.

On to `O=C(CCCCCC(C(=O)Nc1ccccc1)C(=O)Nc1ccccc1)NO` [UCL67022, 2-Phenylcarbamoyl-octanedioic acid 8-hydroxyamide 1-phenylamide], for which the IC50 in [3] (setting [9]) was found to be 40 ± 9 nM; in test [3] (partially purified rat liver preparation, Example 1, FIG. 1, read-out: HDAC inhibitory activity IC50) it was 50 ± 10 nM; in test [4], 110 ± 20 nM; in the test with CEM (leukaemic) cells (cytotoxic activity against CEM (leukaemic) cells, viable cell number, ATP Vialite kit, read-out: HDAC inhibitory IC50), 98 ± 42 nM; in [8], 86 ± 7 nM. Further, the EC50 in the test with CEM (leukaemic) cells (72 h, CEM cells, 3 day incubation, FIG. 3) was 60 nM; in [5], 70 nM; in test [6], 130 nM; in [7], 20 to 80 nM. Also, the “histone H3 acetylation with time” value in test [1] (0.3 μM UCL67022, time periods up to 48 hours) was “acetylation continued to increase out to 24 hours, and was still substantially higher than baseline at 48 hours”. Besides, in test [1], the “change in histone H3 acetylation” value is “marked change in histone H3 acetylation at concentrations as low as 0.1 μM”. For the same molecule, the “effect on tumour growth” value in [2] (daily IP dose levels 12.5·M and 6.25·M) was “appeared to have a clear effect on tumour growth”.

Take `Cc1nsc(C(CCCCCC(=N)NO)C(=O)Nc2ccccc2)n1` (stereo not drawn) [67022,19, 7-(N-Hydroxycarbamimidoyl)-2(3-methyl[1,2,4]thiadiazol-5-yl)heptanoic Acid Phenylamide]: the values for the IC50 in test [3] (setting [9]) and in test [8] were 44600 ± 5600 nM and 46100 ± 12000 nM, respectively.

One may read the EC50 as the concentration at which the effect is half-maximal.
